Several values for one entry are separate records, joined by “and”; a condition that tells them apart may be missing. Identical values can stand only once.
Experiments:
[1] = test system: ALS patients; test: Post-hoc statistical analysis 1: blood uric acid levels in 25% improvement and non-25% improvement groups; assay type: in vivo, human
Experimental: (§1) The blood uric acid levels in the 16 trial, 17 trial, and 19 trial were measured values obtained using the uricase-peroxidase method.
In the present analysis, efficacy was analyzed for placebo patients who had completed the 24-week double-blind period (cycles 1 to 6) and had at least one data point in cycle 7. To estimate the percent change in ALSFRS-R slope for transition from placebo administration (baseline to 24 weeks) to edaravone administration (24 weeks 24 to 48 weeks), a random coefficient model was applied to all available ALSFRS-R score data during this period.
A 25% improvement group meets both of the following criteria:
(1) ALSFRS-R slope % change ≥+25% (this change is defined as a clinically significant improvement (Reference 5: Amyotroph Lateral Scler 2010; 11 (1-2): 178-180)) and (2) ALSFRS-R total score at the start of cycle 7 (24 weeks)>24 points (half of the 48-point ALSFRS-R total score) (this helps avoid floor effects related to the ALSFRS-R total score that could lead to false positives in the analysis).
These criteria were used to define a 25% improvement group and a non-25% improvement group. Using a mixed model for repeated measures, the changes in uric acid levels from the start of cycle 7 (24 weeks) to cycle 12 (48 weeks) were summarized for the 25% improvement group and the non-25% improvement group. The correlation between the change in uric acid levels from 24 weeks to 48 weeks and the ALSFRS-R slope percent change was descriptively summarized using the Wilcoxon test.

[2] = test system: ALS patients; test: Post-hoc statistical analysis 2: uric acid levels from baseline to cycle 12 (16, 17 and 19 trials); assay type: in vivo, human; settings: Overall
Excerpt: After a 12-week observation period, patients whose ALSFRS-R total score decreased by 1 to 4 points during that period were considered eligible for the trial. In the 16 trial, eligible patients were randomly divided into an edaravone treatment group and a placebo administration group, and patients in each group received administration for 24 weeks (cycles 1 to 6). After completing the 24-week double-blind portion of the 16 trial, patients who received edaravone (E) were randomly assigned to the 17 trial, and during a 24-week double-blind extension period (cycles 7 to 12), edaravone treatment (EE group) or placebo administration (EP group) was performed. On the other hand, all patients from the placebo (P) administration group received edaravone treatment (PE group). All patients received open-label edaravone treatment for the next 12 weeks (cycles 13 to 15).
Edaravone was administered at a dose of 60 mg by intravenous infusion over 60 minutes, once daily. The infusion was given for 14 days in the first treatment cycle, and for 10 days out of the 14-day treatment period in all subsequent cycles. A 14-day drug holiday period was provided after each treatment cycle.
Similar to the 16 trial, after a 12-week observation period, patients in the 19 trial were randomly divided into an edaravone treatment group and a placebo administration group, and patients in each group received administration for 24 weeks (cycles 1 to 6). In the 19 trial, after the double-blind treatment period, all patients received open-label edaravone treatment for an additional 24 weeks (cycles 7 to 12). Therefore, the 19 trial included an EE group and a PE group.
as §1
In order to characterize the uric acid level and ALSFRS-R total score profiles at cycle 12, efficacy was analyzed in randomized ALS patients at the start of cycle 7 and randomized ALS patients who received the medical agent at least once after the start of cycle 7.
Descriptive statistics (number of subjects, mean, standard deviation, minimum, maximum) were used to summarize the changes in uric acid levels (mg/dL) and ALSFRS-R total scores from baseline to cycle 12 for the entire population and for the Edaravone treatment group as a subgroup defined by the median baseline uric acid level (4.8 mg/dL). The median baseline uric acid level for all patients (4.8 mg/dL) was derived using the entire edaravone population, including the EE, PE, and EP groups in the 16 trial, the 17 trial, and the 19 trial.

[3] = 25% improvement group, ALS severity grade 3 to 5
[4] = 25% improvement group, ALS severity grade 3 to 5, first change section of Table 3 (n=21)
[5] = 25% improvement group, ALS severity grade 3 to 5, second change section of Table 3 (n=18)
[6] = 25% improvement group, all severities
[7] = non-25% improvement group, ALS severity grade 3 to 5
[8] = non-25% improvement group, ALS severity grade 3 to 5, first change section of Table 3 (n=39)
[9] = non-25% improvement group, ALS severity grade 3 to 5, second change section of Table 3 (n=24)
[10] = non-25% improvement group, all severities

CC1=NN(c2ccccc2)C(=O)C1 [edaravone, 3-methyl-1-phenyl-2-pyrazolin-5-one]
Uric acid level at final administration of Cycle 7, Mean (SD) [1, 3]: 4.65 (1.49) mg/dL
Uric acid level at final administration of Cycle 12, Mean (SD) [1, 3]: 4.61 (1.48) mg/dL
Uric acid change from start of Cycle 7 to final administration of Cycle 12, LS mean (SE) [1, 4]: −0.37 (0.24) mg/dL
Uric acid change from start of Cycle 7 to final administration of Cycle 12, Mean (SD) [1, 4]: 0.05 (0.47) mg/dL
Uric acid change from start of Cycle 7 to final administration of Cycle 12, LS mean (SE) [1, 5]: −0.42 (0.24) mg/dL
Uric acid change from start of Cycle 7 to final administration of Cycle 12, Mean (SD) [1, 5]: 0.04 (0.60) mg/dL
Uric acid change from start of Cycle 7 to final administration of Cycle 7, LS mean (SE) [1, 6]: −0.16 mg/dL and −0.16 (0.15) mg/dL
Uric acid change from start of Cycle 7 to final administration of Cycle 7, Mean (SD) [1, 6]: 0.05 mg/dL and 0.05 (0.49) mg/dL
Uric acid change from start of Cycle 7 to final administration of Cycle 12, LS mean (SE) [1, 6]: −0.28 mg/dL and −0.28 (0.15) mg/dL
Uric acid change from start of Cycle 7 to final administration of Cycle 12, Mean (SD) [1, 6]: −0.04 mg/dL and −0.04 (0.68) mg/dL
Uric acid level at final administration of Cycle 12, Mean (SD) [1, 6]: 4.51 (1.43) mg/dL
Uric acid level at final administration of Cycle 7, Mean (SD) ([1]; 25% improvement group, all severities, 2 weeks after starting edaravone): 4.63 (1.45) mg/dL
Uric acid change from start of Cycle 7 to final administration of Cycle 12, LSMD (SE) between 25% improvement group and non-25% improvement group ([1]; ALS severity grade 3 to 5, first change section of Table 3, p=0.1701): 0.24 (0.18) mg/dL
Uric acid change from start of Cycle 7 to final administration of Cycle 12, LSMD (SE) between 25% improvement group and non-25% improvement group ([1]; ALS severity grade 3 to 5, second change section of Table 3, p=0.0044): 0.55 (0.19) mg/dL
Uric acid change from start of Cycle 7 to final administration of Cycle 12, LSMD (SE) between 25% improvement group and non-25% improvement group ([1]; all severities, p=0.0252): 0.28 mg/dL and 0.28 (0.12) mg/dL
Uric acid change from start of Cycle 7 to final administration of Cycle 7, LSMD (SE) between 25% improvement group and non-25% improvement group ([1]; all severities, p=0.0726): 0.21 mg/dL and 0.21 (0.12) mg/dL
Uric acid level at final administration of Cycle 7, Mean (SD) [1, 7]: 4.31 (1.10) mg/dL
Uric acid level at final administration of Cycle 12, Mean (SD) [1, 7]: 4.18 (1.00) mg/dL
Uric acid change from start of Cycle 7 to final administration of Cycle 12, LS mean (SE) [1, 8]: −0.61 (0.21) mg/dL
Uric acid change from start of Cycle 7 to final administration of Cycle 12, Mean (SD) [1, 8]: −0.22 (0.60) mg/dL
Uric acid change from start of Cycle 7 to final administration of Cycle 12, LS mean (SE) [1, 9]: −0.98 (0.22) mg/dL
Uric acid change from start of Cycle 7 to final administration of Cycle 12, Mean (SD) [1, 9]: −0.40 (1.02) mg/dL
Uric acid change from start of Cycle 7 to final administration of Cycle 7, LS mean (SE) [1, 10]: −0.37 mg/dL and −0.37 (0.12) mg/dL
Uric acid change from start of Cycle 7 to final administration of Cycle 7, Mean (SD) [1, 10]: −0.14 mg/dL and −0.14 (0.52) mg/dL
Uric acid change from start of Cycle 7 to final administration of Cycle 12, LS mean (SE) [1, 10]: −0.56 mg/dL and −0.56 (0.12) mg/dL
Uric acid change from start of Cycle 7 to final administration of Cycle 12, Mean (SD) [1, 10]: -0.22 mg/dL and −0.22 (0.81) mg/dL
Uric acid level at final administration of Cycle 7, Mean (SD) [1, 10]: 4.46 (1.29) mg/dL
Uric acid level at final administration of Cycle 12, Mean (SD) [1, 10]: 4.48 (1.29) mg/dL
Uric acid level change from BL to cycle 12, Mean (SD) ([2]; EE group): -0.25 mg/dL
Uric acid level change from BL to cycle 12, Mean (SD) ([2]; EE group, listed as Edaravone): −0.25 (0.86) mg/dL
Uric acid level change from BL to cycle 12, Mean (SD) ([2]; EP group): -0.22 mg/dL

— US20250134863A1, “MEDICAL AGENT FOR TREATING OR SUPPRESSING PROGRESSION OF AMYOTROPHIC LATERAL SCLEROSIS” (MITSUBISHI TANABE PHARMA CORPORATION, priority 2022, published 2025)
